Laboratory results published in ChEMBL document CHEMBL1139587, “Synthesis of an N-acyl sulfamate analog of luciferyl-AMP: a stable and potent inhibitor of firefly luciferase” (Bioorg Med Chem Lett, 2005).

T1: Luciferin 4-monooxygenase (Luciola lateralis, UniProt Q01158)
T1 sequence (Q01158 whole entry): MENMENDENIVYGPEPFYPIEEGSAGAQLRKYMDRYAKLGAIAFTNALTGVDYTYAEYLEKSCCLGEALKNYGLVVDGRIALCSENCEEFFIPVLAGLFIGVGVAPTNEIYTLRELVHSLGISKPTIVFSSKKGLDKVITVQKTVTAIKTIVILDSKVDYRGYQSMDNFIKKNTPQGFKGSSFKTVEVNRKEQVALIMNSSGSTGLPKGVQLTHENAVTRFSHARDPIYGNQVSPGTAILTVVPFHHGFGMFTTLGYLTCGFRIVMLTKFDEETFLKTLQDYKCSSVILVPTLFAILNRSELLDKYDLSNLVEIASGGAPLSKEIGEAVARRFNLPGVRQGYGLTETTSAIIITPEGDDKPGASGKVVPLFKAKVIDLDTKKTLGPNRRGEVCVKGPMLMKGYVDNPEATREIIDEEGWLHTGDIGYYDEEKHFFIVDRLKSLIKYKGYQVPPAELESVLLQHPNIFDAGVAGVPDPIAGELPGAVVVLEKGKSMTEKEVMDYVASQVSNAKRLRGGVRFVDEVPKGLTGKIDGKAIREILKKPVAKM

B1: Luciferin 4-monooxygenase (Luciola lateralis), Q01158 (protein)
chain: T1 sequence (Q01158 whole entry)

Tests used:
[1] = target: T1, Luciferin 4-monooxygenase; assay: Inhibition constant against luciferase with respect to natural substrate Mg-ATP; parameters: species or system Aquatica lateralis
[2] = target: T1, Luciferin 4-monooxygenase; assay: Inhibition constant against luciferase with respect to natural substrate luciferin; parameters: species or system Aquatica lateralis
[3] = target: T1, Luciferin 4-monooxygenase; assay: Inhibition constant against luciferase with respect to luciferyl-adenylate; parameters: species or system Aquatica lateralis
[4] = substrate: Nc1ncnc2c1ncn2C1O[C@H](COP(=O)(O)OC(=O)c2csc(-c3nc4ccc(O)cc4s3)n2)[C@@H](O)[C@H]1O; assay: Binding affinity against luciferase; conditions: Aquatica lateralis

Row | Molecule | Ki [1] [nM] | Ki [2] [nM] | Ki [3] [nM] | Km [4] [µM]
1 | Nc1ncnc2c1ncn2[C@@H]1O[C@H](COS(=O)(=O)NC(=O)c2csc(-c3nc4ccc(O)cc4s3)n2)[C@@H](O)[C@H]1O | 41 | 34 | 340 | –
2 | B1 | – | – | – | 4.7
